Experimental data: patent publication US4332803A, “Benzanilide derivative” (Mead Johnson & Company, priority 1980, dated 1982)
Like-named read-outs stand apart in the source and are kept apart here.

Columns and labels:
[1] = system: ventricular arrhythmia in mice produced by chloroform inhalation; assay: Test I: antiarrhythmic activity for ventricular arrhythmia in mice produced by chloroform inhalation; format: in vivo; conditions: for ED50: Mus musculus, ip, read-out: Antiarrhythmic activity, ED50
Source text: I. Antiarrhythmic activity for ventricular arrhythmia in mice
produced by chloroform inhalation; ED50 expressed as mg/kg
body weight, intraperitoneal administration, J. W. Lawson, […]

in vivo = conditions: mouse, in vivo, po
Source text: (§1) II. AlD50 /ATD50 mouse treated orally; ALD50 is the
(§2) lethal dose for half the animals; ATD50 is the approximate
(§3) lowest dose where signs of physiologic or neurologic deficit
(§4) appear in half the animals, expressed as mg/kg body weight.

mouse = assay: Test II: approximation of the oral toxicity in mice (ALD50/ATD50); conditions: comparison among the tabulated compounds, mice
Source text: as §1, §2, §3, §4

clinical = conditions: for half-life: human
Protocol: III. Time following oral dosing of humans with 75 mg. of encainide
hydrochloride for clearance (plasma concentration <20 ng./ml.)
from blood plasma; hours.
IV. Approximate half life in human blood plasma following oral
dosing with encainide hydrochloride; hours.
A. Extraction of Biological Fluid.
B. High Pressure Liquid Chromatography (HPLC) Conditions. […] These standards were treated as described above.

[2] = man, two or more hours following 50 mg. dose of encainide hydrochloride orally
Protocol: A. Extraction of Biological Fluid. To 1 ml of plasma or urine in a screw-capped tube there is added 0.2 ml of 0.5 M. Tris-HCl buffer (2-amino-2-hydroxymethyl-1,3-propanediol), pH 8.5, and 10 ml of n-butyl chloride containing 5% by volume of isopropanol. The sample is then shaken on an oscillating mixer followed by centrifugation to separate the phases. A 9 ml aliquot of the organic layer is removed and evaporated to dryness under a stream of nitrogen and the residue is redissolved in 100 mcl of ethanol. A 50 mcl aliquot of this solution is injected onto the column for high pressure liquid chromatography.
B. High Pressure Liquid Chromatography (HPLC) Conditions. A normal phase silicic acid column having dimensions 3.9 mm by 30 cm in length equipped with a variable wavelength UV detector set at 254 nm is used. The mobil phase employed consists of 500 ml of ethanol, 30 ml of water, and 0.1 ml of methanesulfonic acid at a flow rate of 1 ml per minute. A series of standards containing 0, 25, 100 and 500 ng/ml of each compound to be assayed was prepared using pooled human plasma. These standards were treated as described above. Quantification of the detector response was achieved by digital integration or measurement of peak heights. The standard curve for each component was constructed by linear regression of the detector response versus concentration from the plasma standards. […]

[3] = following treatment with encainide; cited from earlier work
[4] = mice, chloroform inhalation, intraperitoneal administration, ranges are of various determinations

Structure (SMILES) | ED50 [1, 4] [mg/kg] | LD50 (in vivo) [mg/kg] | TD50 (in vivo) [mg/kg] | Toxicity (in words) (mouse) | half-life (clinical; in vivo, po) [h] | Presence in the blood (in words) (clinical; in vivo, po) | Time following oral dosing for clearance (plasma concentration <20 ng./ml.) from blood plasma (clinical; in vivo, po) [h] | Concentration in blood plasma relative to Compound No. 89 [2] | ED50 [1] [mg/kg] | Antiarrhythmic activity (in words) ([1]; comparison among the tabulated compounds, mice) | half-life (clinical; in vivo, po, 75 mg) [h] | Time following oral dosing for clearance (plasma concentration <20 ng./ml.) from blood plasma (clinical; humans dosed orally with 75 mg. of encainide hydrochloride) [h] | Amount in plasma relative to encainide [3]
COc1ccc(C(=O)Nc2ccccc2CCC2CCCCN2C)cc1OC (stereo not drawn) [compound 109] | 10 | 100 | 25 | – | – | – | – | – | – | – | – | – | –
COc1ccc(C(=O)Nc2ccccc2CCC2CCCCN2)cc1 (stereo not drawn) [compound 139, N-demethylencainide] | 28 | 147 | 15.7 | – | – | – | – | – | – | – | – | – | –
COc1cc(C(=O)Nc2ccccc2CCC2CCCCN2C)ccc1O (stereo not drawn) [Compound A, 4-Hydroxy-3-methoxy-N-[2-[2-(1-methyl-2-piperidinyl)ethyl]phenyl]benzamide] | 9.5 | 250 | 31.3 to 62.5 | reduced toxicity | 4 to 6 | more prolonged presence in the blood | > 16 | substantially greater | – | – | – | – | –
COc1cccc(C(=O)Nc2ccccc2CCC2CCCCN2C)c1 (stereo not drawn) [compound 108] | 10 | 100 | 10 to 25 | – | – | – | – | – | – | – | – | – | –
CN1CCCCC1CCc1ccccc1NC(=O)c1ccc(O)cc1 (stereo not drawn) [Compound No. 89, O-demethylencainide] | – | 25 to 50 | 5 to 10 | somewhat more toxic in mice | – | – | – | – | 1.7 to 2.8 | somewhat more potent | 4 to 6 | > 16 | several times the concentration of encainide
COc1ccc(C(=O)Nc2ccccc2CCC2CCCCN2C)cc1 (stereo not drawn) [Compound No. 107, encainide] | 5.3 to 15 | 50 to 100 | 5 to 10 | – | 2.5 to 3 | – | 6 | – | – | – | – | – | –
